Measured values: patent publication EP3046573B1, “AMYLIN ANALOGUES” (Zealand Pharma A/S, priority 2013, dated 2015)
Read-outs that look alike come from different tables or passages of the source. Numbered stars: 1 amine (or outer) side, 2 acyl side, 3 side chain; on linkers, the order of the positions; unused ones are H or OH. Bridge positions count the residues as written; N and C are the ends. Square brackets hold non-standard residues; d marks the D form. Peptide text beside a SMILES is read from it. * marks the point of attachment. C20 diacid = O=C(O)CCCCCCCCCCCCCCCCCCC(=O)*; γGlu = O=C(O)[C@H](CCC(=O)[*:2])N[*:1]; NMeI = CC[C@H](C)[C@H](NC)C(=O)O; Sar = CNCC(=O)O

Columns and labels:
[1] = molecular target: T1, human calcitonin receptor (hCTR2) (Homo sapiens, UniProt P30988); test: hCTR2 assay: induction of cAMP (AlphaScreen cAMP Assay kit) in COS7 cells expressing hCTR2; type: cell-based
T1 construct: expressed in transfected cells
T1 sequence (P30988 25-474): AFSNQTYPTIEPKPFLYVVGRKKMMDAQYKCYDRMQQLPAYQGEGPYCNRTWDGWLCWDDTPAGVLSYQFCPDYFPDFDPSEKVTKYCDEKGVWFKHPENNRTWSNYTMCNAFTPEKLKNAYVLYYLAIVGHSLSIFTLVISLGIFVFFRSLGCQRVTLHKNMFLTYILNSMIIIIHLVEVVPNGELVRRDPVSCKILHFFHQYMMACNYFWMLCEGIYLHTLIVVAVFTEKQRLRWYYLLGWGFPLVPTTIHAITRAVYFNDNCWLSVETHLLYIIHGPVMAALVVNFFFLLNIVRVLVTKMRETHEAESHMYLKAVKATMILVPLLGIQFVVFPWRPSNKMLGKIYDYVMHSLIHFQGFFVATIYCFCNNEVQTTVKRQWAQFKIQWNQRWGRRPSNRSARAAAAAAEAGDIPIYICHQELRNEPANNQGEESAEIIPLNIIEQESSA
Summary of the method: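 cAMP induction was measured by AlphaScreen in COS7 cells stably expressing hCTR2 without RAMPs, after 15 min at 37° C with increasing peptide concentrations, 100 µM IBMX and 0.1% casein (Tyrode, pH 7.4). A 4-parameter logistic fit gave EC50 and % efficacy versus pramlintide.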

[2] = Solubility assessment (turbidity absorbance at 325 nm); type: physicochemical; settings: stock 2 mg/ml diluted 1:1, ambient temperature (typically 25°C), n=1; for Solubility, Acetate buffer pH 4: 100 mM acetate buffer pH 4.0; for Solubility, Acetate buffer pH 5: 100 mM acetate buffer pH 5.0; for Solubility, Histidine buffer pH 6: 100 mM histidine buffer pH 6.0; for Solubility, Histidine buffer pH 7: 100 mM histidine buffer pH 7.0; for Solubility, Phosphate buffer pH 6: 100 mM phosphate buffer pH 6.0; for Solubility, Phosphate buffer pH 7: 100 mM phosphate buffer pH 7.0; for Solubility, Phosphate buffer pH 7.5: 100 mM phosphate buffer pH7.5
Summary of the method: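 Read-out: turbidity as absorbance at 325 nm (280 nm also read), single samples, ambient temperature of typically 25°C. Samples were a 1:1 mix of 2 mg/ml stock (water, pH 2.5) with 100 mM acetate, histidine or phosphate buffers spanning pH 4.0–7.5. Cut-off: A325 ≤ 0.02 indicates ≥ 1 mg/ml.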

EC50 ([1]; cAMP induction in COS7 cells expressing hCTR2, average of a minimum of 3 determinations, read-out: hCTR2 EC50) | Compound | EC50 [1] | Solubility, Acetate buffer pH 4 [2] | Solubility, Acetate buffer pH 5 [2] | Solubility, Histidine buffer pH 6 [2] | Solubility, Histidine buffer pH 7 [2] | Solubility, Phosphate buffer pH 6 [2] | Solubility, Phosphate buffer pH 7 [2] | Solubility, Phosphate buffer pH 7.5 [2]
 | CC[C@@H](C)[C@@H](NC(=O)[C@H](C)NC(=O)CN(C)C(=O)[C@H](Cc1ccccc1)NC(=O)[C@H](CC(N)=O)NC(=O)[C@H](CC(N)=O)NC(=O)[C@H](CO)NC(=O)[C@H](CO)NC(=O)[C@H](Cc1c[nH]cn1)NC(=O)[C@H](Cc1c[nH]cn1)NC(=O)[C@H](CC(C)C)NC(=O)[C@H](Cc1ccccc1)NC(=O)[C@H](CCC(=O)O)NC(=O)[C@H](C)NC(=O)[C@H](CC(C)C)NC(=O)[C@H](CCCNC(=N)N)NC(=O)[C@H](CCC(N)=O)NC(=O)[C@@H](NC(=O)[C@H](C)NC(=O)[C@@H]1CSSC[C@H](NC(=O)[C@H](CCCNC(=N)N)NC(=O)CC[C@H](NC(=O)CCCCCCCCCCCCCCCCCCC(=O)O)C(=O)O)C(=O)N[C@@H](CC(N)=O)C(=O)N[C@@H]([C@@H](C)O)C(=O)N[C@@H](C)C(=O)N[C@@H]([C@@H](C)O)C(=O)N1)[C@@H](C)O)C(=O)N[C@@H](CC(C)C)C(=O)N[C@@H](CO)C(=O)N[C@@H](CO)C(=O)N[C@H](C(=O)N[C@@H](CC(N)=O)C(=O)N[C@H](C(=O)NCC(=O)N[C@@H](CO)C(=O)N[C@@H](CC(N)=O)C(=O)N[C@H](C(=O)N1CCC[C@H]1C(N)=O)[C@@H](C)O)C(C)C)[C@@H](C)O [Compound 28, [19CD]-isoGlu-RC()NTATC()ATQRLAEFLHHSSNNF-Gly(Me)-A-DIle-LSSTNVGSNTP-NH2] ({C20 diacid-γGlu}-RCNTATCATQRLAEFLHHSSNNF[Sar]A[dI]LSSTNVGSNTP-NH2; disulfide 2-7) | 0.16 nM | SS (SS indicates solubility ≥ 1mg/ml) | SS (SS indicates solubility ≥ 1mg/ml) | SS (SS indicates solubility ≥ 1mg/ml) | SS (SS indicates solubility ≥ 1mg/ml) | SS (SS indicates solubility ≥ 1mg/ml) | SS (SS indicates solubility ≥ 1mg/ml) | SS (SS indicates solubility ≥ 1mg/ml)
0.17 nM | CC[C@H](C)[C@@H](C(=O)N[C@@H](CC(C)C)C(=O)N[C@@H](CO)C(=O)N[C@@H](CO)C(=O)N[C@H](C(=O)N[C@@H](CC(N)=O)C(=O)N[C@H](C(=O)NCC(=O)N[C@@H](CO)C(=O)N[C@@H](CC(N)=O)C(=O)N[C@H](C(=O)N1CCC[C@H]1C(N)=O)[C@@H](C)O)C(C)C)[C@@H](C)O)N(C)C(=O)CN(C)C(=O)[C@H](Cc1ccccc1)NC(=O)[C@@H](CC(N)=O)NC(=O)[C@H](CC(N)=O)NC(=O)[C@H](CO)NC(=O)[C@H](CO)NC(=O)[C@H](Cc1c[nH]cn1)NC(=O)[C@H](Cc1c[nH]cn1)NC(=O)[C@H](CC(C)C)NC(=O)[C@H](Cc1ccccc1)NC(=O)[C@H](CCC(=O)O)NC(=O)[C@H](C)NC(=O)[C@H](CC(C)C)NC(=O)[C@H](CCCNC(=N)N)NC(=O)[C@H](CCC(N)=O)NC(=O)[C@@H](NC(=O)[C@H](C)NC(=O)[C@@H]1CSSC[C@H](NC(=O)[C@H](CCCNC(=N)N)NC(=O)CC[C@H](NC(=O)CCCCCCCCCCCCCCCCCCC(=O)O)C(=O)O)C(=O)N[C@@H](CC(N)=O)C(=O)N[C@@H]([C@@H](C)O)C(=O)N[C@@H](C)C(=O)N[C@@H]([C@@H](C)O)C(=O)N1)[C@@H](C)O [Compound 36, [19CD]-isoGlu-RC()NTATC()ATQRLAEFLHHSSN-DAsn-F-Gly(Me)-Ile(Me)-LSSTNVGSNTP-NH2] ({C20 diacid-γGlu}-RCNTATCATQRLAEFLHHSSN[dN]F[Sar][NMeI]LSSTNVGSNTP-NH2; disulfide 2-7) |  | SS (SS indicates solubility ≥ 1mg/ml) | SS (SS indicates solubility ≥ 1mg/ml) | SS (SS indicates solubility ≥ 1mg/ml) | SS (SS indicates solubility ≥ 1mg/ml) | SS (SS indicates solubility ≥ 1mg/ml) | SS (SS indicates solubility ≥ 1mg/ml) | SS (SS indicates solubility ≥ 1mg/ml)
 | CC[C@H](C)[C@@H](C(=O)N[C@@H](CC(C)C)C(=O)N[C@@H](CO)C(=O)N[C@@H](CO)C(=O)N[C@@H](CC(N)=O)C(=O)N[C@H](C(=O)NCC(=O)N[C@@H](CO)C(=O)N[C@@H](CC(N)=O)C(=O)N[C@H](C(=O)N1CCC[C@H]1C(N)=O)[C@@H](C)O)C(C)C)N(C)C(=O)[C@H](C)NC(=O)CN(C)C(=O)[C@H](Cc1ccccc1)NC(=O)[C@H](CC(N)=O)NC(=O)[C@H](CC(N)=O)NC(=O)[C@H](CO)NC(=O)[C@H](CO)NC(=O)[C@H](Cc1c[nH]cn1)NC(=O)[C@H](Cc1c[nH]cn1)NC(=O)[C@H](CC(C)C)NC(=O)[C@H](Cc1ccccc1)NC(=O)[C@H](CCC(=O)O)NC(=O)[C@H](C)NC(=O)[C@H](CC(C)C)NC(=O)[C@H](CCCNC(=N)N)NC(=O)[C@H](CCC(N)=O)NC(=O)[C@@H](NC(=O)[C@H](C)NC(=O)[C@@H]1CSSC[C@H](NC(=O)[C@H](CCCNC(=N)N)NC(=O)CC[C@H](NC(=O)CCCCCCCCCCCCCCCCCCC(=O)O)C(=O)O)C(=O)N[C@@H](CC(N)=O)C(=O)N[C@@H]([C@@H](C)O)C(=O)N[C@@H](C)C(=O)N[C@@H]([C@@H](C)O)C(=O)N1)[C@@H](C)O [Compound 37, [19CD]-isoGlu-RC()NTATC()ATQRLAEFLHHSSNNF-Gly(Me)-A-Ile(Me)-LSSNVGSNTP-NH2] ({C20 diacid-γGlu}-RCNTATCATQRLAEFLHHSSNNF[Sar]A[NMeI]LSSNVGSNTP-NH2; disulfide 2-7) | 0.39 nM | SS (SS indicates solubility ≥ 1mg/ml) | SS (SS indicates solubility ≥ 1mg/ml) | SS (SS indicates solubility ≥ 1mg/ml) | SS (SS indicates solubility ≥ 1mg/ml) | SS (SS indicates solubility ≥ 1mg/ml) | SS (SS indicates solubility ≥ 1mg/ml) | SS (SS indicates solubility ≥ 1mg/ml)
 | CC[C@H](C)[C@@H](C(=O)N[C@@H](CC(C)C)C(=O)N[C@@H](CO)C(=O)N[C@@H](CO)C(=O)N[C@H](C(=O)N[C@@H](CC(N)=O)C(=O)N[C@H](C(=O)NCC(=O)N[C@@H](CO)C(=O)N[C@@H](CC(N)=O)C(=O)N[C@H](C(=O)N1CCC[C@H]1C(N)=O)[C@@H](C)O)C(C)C)[C@@H](C)O)N(C)C(=O)CN(C)C(=O)[C@H](Cc1ccccc1)NC(=O)[C@H](CC(N)=O)NC(=O)[C@H](CO)NC(=O)[C@H](CO)NC(=O)[C@H](Cc1c[nH]cn1)NC(=O)[C@H](Cc1c[nH]cn1)NC(=O)[C@H](CC(C)C)NC(=O)[C@H](Cc1ccccc1)NC(=O)[C@H](CCC(=O)O)NC(=O)[C@H](C)NC(=O)[C@H](CC(C)C)NC(=O)[C@H](CCCNC(=N)N)NC(=O)[C@H](CCC(N)=O)NC(=O)[C@@H](NC(=O)[C@H](C)NC(=O)[C@@H]1CSSC[C@H](NC(=O)[C@H](CCCNC(=N)N)NC(=O)CC[C@H](NC(=O)CCCCCCCCCCCCCCCCCCC(=O)O)C(=O)O)C(=O)N[C@@H](CC(N)=O)C(=O)N[C@@H]([C@@H](C)O)C(=O)N[C@@H](C)C(=O)N[C@@H]([C@@H](C)O)C(=O)N1)[C@@H](C)O [Compound 38, [19CD]-isoGlu-RC()NTATC()ATQRLAEFLHHSSNF-Gly(Me)-Ile(Me)-LSSTNVGSNTP-NH2] ({C20 diacid-γGlu}-RCNTATCATQRLAEFLHHSSNF[Sar][NMeI]LSSTNVGSNTP-NH2; disulfide 2-7) | 0.16 nM | II (II indicates solubility ≤ 1 mg/ml) | II (II indicates solubility ≤ 1 mg/ml) | II (II indicates solubility ≤ 1 mg/ml) | II (II indicates solubility ≤ 1 mg/ml) | II (II indicates solubility ≤ 1 mg/ml) | II (II indicates solubility ≤ 1 mg/ml) | II (II indicates solubility ≤ 1 mg/ml)
